Laboratory results reported in article PMC6803848, “Exploring New Structural Features of the 18β-Glycyrrhetinic Acid Scaffold for the Inhibition of Anaplastic Lymphoma Kinase” (Molecules, 2019).
Values after ≈ are worked out from the molar mass of the structure shown.

Columns and labels:
Karpas299 = test: MTT antiproliferative assay, Karpas299 cells; assay type: cell-based; conditions: Homo sapiens, KARPAS-299
Method: (§1) All the cells were seeded in 96-well plates and incubated with 5% CO2 at 37 °C for 24 h. Next, the compounds and the reference were dissolved into the culture medium. The final concentration of DMSO in the medium was less than 0.5%. After the cells were treated with compounds for 48 h, the supernatant was removed and 5 mg/mL of a fresh prepared solution of MTT was added to each well and incubated with the cells at 37 °C for another 4 h. The medium was removed, and 100 μL of testing solution was added to each well. After an overnight incubation with 5% CO2 at 37 °C, the absorbance was measured at 490/630 nm by the microplate reader. The IC50 was calculated using GraphPad Prism version 6.0 software (San Diego, CA, USA) from the non-linear curve.

HT29 = test: MTT antiproliferative assay, HT29 cells; assay type: cell-based; conditions: Homo sapiens, HT-29; for inhibition at 2 µg/mL: HT29, 2 μg/mL; for inhibition at 2 µg/mL / inhibition at 20 µg/mL: 48 h, MTT, read-out: Antiproliferative activity (growth inhibition, %); for inhibition at 20 µg/mL: HT29, 20 μg/mL; for IC50: HT29, MTT
Method: as §1

A549 = test: MTT antiproliferative assay, A549 cells; assay type: cell-based; conditions: Homo sapiens; for inhibition at 2 µg/mL: A549, 2 μg/mL; for inhibition at 2 µg/mL / inhibition at 20 µg/mL: 48 h, MTT, read-out: Antiproliferative activity (growth inhibition, %); for inhibition at 20 µg/mL: A549, 20 μg/mL; for IC50: A549, MTT
Method: as §1

HepG2 = test: MTT antiproliferative assay, HepG2 cells; assay type: cell-based; conditions: Homo sapiens
Method: as §1

PC-3 = test: MTT antiproliferative assay, PC-3 cells; assay type: cell-based; conditions: Homo sapiens; PC-3, MTT
Method: as §1

MCF-7 = test: MTT antiproliferative assay, MCF-7 cells; assay type: cell-based; conditions: Homo sapiens, MCF7; MCF-7, MTT
Method: as §1

| Compound | IC50 (Karpas299) | inhibition at 2 µg/mL (HT29) | inhibition at 20 µg/mL (HT29) | IC50 (HT29) | inhibition at 2 µg/mL (A549) | inhibition at 20 µg/mL (A549) | IC50 (A549) | IC50 (HepG2) | IC50 (PC-3) | IC50 (MCF-7) | melting point |
| --- | --- | --- | --- | --- | --- | --- | --- | --- | --- | --- | --- |
| CC1(C)[C@@H](O)CC[C@]2(C)[C@H]3C(=O)C=C4[C@@H]5C[C@@](C)(C(=O)O)CC[C@]5(C)CC[C@@]4(C)[C@]3(C)CC[C@@H]12 [18β-GA, 18β-glycyrrhetinic acid] | > 40 µg/mL | 0% | 12.9% | > 40 µg/mL | 0% | 8.41% | > 40 µg/mL | > 40 µg/mL | > 40 µg/mL | > 40 µg/mL |  |
| Cc1cc(C)cc(NC(=O)O[C@H]2CC[C@@]3(C)C(CC[C@]4(C)[C@@H]3C(=O)C=C3[C@@H]5C[C@@](C)(C(=O)O)CC[C@]5(C)CC[C@]34C)C2(C)C)c1 (stereo partly drawn) [3o, 3β-(((3,5-dimethylphenyl)carbamoyl)oxy)-11-oxo-olean-12-en-30-oic acid] | 11.4 µg/mL (≈ 18.5 µM) | 55.8% | 98.2% | 7.3 µg/mL (≈ 11.8 µM) | 24.4% | 86.3% | 3.24 µg/mL (≈ 5.24 µM) | 4.75 µg/mL (≈ 7.69 µM) | 10.7 µg/mL (≈ 17.3 µM) | 7.86 µg/mL (≈ 12.7 µM) | 279.8 to 280.6 °C |
| CC1(C)C2CC[C@]3(C)[C@H](C(=O)C=C4[C@@H]5C[C@@](C)(C(=O)O)CC[C@]5(C)CC[C@]43C)[C@@]2(C)CC[C@@H]1OC(=O)Nc1cc(Cl)cc(Cl)c1 (stereo partly drawn) [3c, 3β-(((3,5-dichlorophenyl)carbamoyl)oxy)-11-oxo-olean-12-en-30-oic acid] | 15.5 µg/mL (≈ 23.5 µM) | 8.39% | 98.6% | 9.74 µg/mL (≈ 14.8 µM) | 18.5% | 95.4% | 12.3 µg/mL (≈ 18.6 µM) | 10.7 µg/mL (≈ 16.2 µM) | 15 µg/mL (≈ 22.7 µM) | 5.53 µg/mL (≈ 8.4 µM) | 236.1 to 237.7 °C |
| CC1(C)C2CC[C@]3(C)[C@H](C(=O)C=C4[C@@H]5C[C@@](C)(C(=O)O)CC[C@]5(C)CC[C@]43C)[C@@]2(C)CC[C@@H]1OC(=O)Nc1cccc(Cl)c1 (stereo partly drawn) [3e, 3β-(((3-chlorophenyl)carbamoyl)oxy)-11-oxo-olean-12-en-30-oic acid] | 7.31 µg/mL (≈ 11.7 µM) | 18.8% | 96.4% | 10.9 µg/mL (≈ 17.5 µM) | 14.3% | 74.9% | 11.3 µg/mL (≈ 18.2 µM) | 11.9 µg/mL (≈ 19.1 µM) | 9.75 µg/mL (≈ 15.6 µM) | 8.51 µg/mL (≈ 13.6 µM) |  |
| CC1(C)C2CC[C@]3(C)[C@H](C(=O)C=C4[C@@H]5C[C@@](C)(C(=O)N6CCOCC6)CC[C@]5(C)CC[C@]43C)[C@@]2(C)CC[C@@H]1OC(=O)Nc1cc(C(F)(F)F)cc(C(F)(F)F)c1 (stereo partly drawn) [4k, 3β-(((3,5-bis(trifluoromethyl)phenyl)carbamoyl)oxy)-30-morpholino-olean-12-ene-11,30-dione] |  | 13% | 14.9% |  | 4.47% | 0% |  |  |  |  | 313.4 to 314.7 °C |
| CC1(C(=O)N2CCOCC2)CCC2(C)CCC3(C)C(=CC(=O)C4C5(C)CCC(OC(=O)Nc6ccc(F)cc6)C(C)(C)C5CCC43C)C2C1 (stereo not drawn) [4h, 3β-(((4-fluorophenyl)carbamoyl)oxy)-30-morpholino-olean-12-ene-11,30-dione] |  | 14.8% | 30.4% |  | 0% | 8.54% |  |  |  |  | 305.1 to 311.4 °C |
| CC1(C)C2CC[C@]3(C)[C@H](C(=O)C=C4[C@@H]5C[C@@](C)(C(=O)N6CCOCC6)CC[C@]5(C)CC[C@]43C)[C@@]2(C)CC[C@@H]1OC(=O)Nc1ccc(C(F)(F)F)cc1 (stereo partly drawn) [4i, 3β-(((4-(trifluoromethyl)phenyl)carbamoyl)oxy)-30-morpholino-olean-12-ene-11,30-dione] |  | 13.7% | 27.3% |  | 0% | 4.46% |  |  |  |  | 296.4 to 298 °C |
| CC1(C)C2CC[C@]3(C)[C@H](C(=O)C=C4[C@@H]5C[C@@](C)(C(=O)O)CC[C@]5(C)CC[C@]43C)[C@@]2(C)CC[C@@H]1OC(=O)Nc1ccc(F)cc1 (stereo partly drawn) [3h, 3β-(((4-fluorophenyl)carbamoyl)oxy)-11-oxo-olean-12-en-30-oic acid] |  | 11.8% | 58.6% |  | 34.4% | 56.7% |  |  |  |  | 267.9 to 268.9 °C |
| COc1cccc(NC(=O)O[C@H]2CC[C@@]3(C)C(CC[C@]4(C)[C@@H]3C(=O)C=C3[C@@H]5C[C@@](C)(C(=O)N6CCOCC6)CC[C@]5(C)CC[C@]34C)C2(C)C)c1 (stereo partly drawn) [4l, 3β-(((3-methoxyphenyl)carbamoyl)oxy)-30-morpholino-olean-12-ene-11,30-dione] |  | 13.6% | 16.6% |  | 0% | 0% |  |  |  |  | 305 to 306.8 °C |
| CC1(C)C2CC[C@]3(C)[C@H](C(=O)C=C4[C@@H]5C[C@@](C)(C(=O)O)CC[C@]5(C)CC[C@]43C)[C@@]2(C)CC[C@@H]1OC(=O)Nc1ccc(Cl)c(Cl)c1 (stereo partly drawn) [3a, 3β-(((3,4-dichlorophenyl)carbamoyl)oxy)-11-oxo-olean-12-en-30-oic acid] | 12.3 µg/mL (≈ 18.7 µM) | 11.3% | 98% | 11.4 µg/mL (≈ 17.4 µM) | 23.9% | 95.9% | 11.2 µg/mL (≈ 17 µM) | 11.6 µg/mL (≈ 17.6 µM) | 11.9 µg/mL (≈ 18.1 µM) | 9.31 µg/mL (≈ 14.1 µM) | 260 to 261.4 °C |
| C[C@@H](Oc1cc(-c2cnn(C3CCNCC3)c2)cnc1N)c1c(Cl)ccc(F)c1Cl [Crizotinib, reference compound] | 0.28 µg/mL (≈ 0.622 µM) | 68.8% | 99.8% | 0.67 µg/mL (≈ 1.49 µM) | 67.6% | 97.3% | 1.27 µg/mL (≈ 2.82 µM) | 2.15 µg/mL (≈ 4.77 µM) | 3.3 µg/mL (≈ 7.33 µM) | 1.84 µg/mL (≈ 4.09 µM) |  |
| CC1(C)C2CC[C@]3(C)[C@H](C(=O)C=C4[C@@H]5C[C@@](C)(C(=O)N6CCOCC6)CC[C@]5(C)CC[C@]43C)[C@@]2(C)CC[C@@H]1OC(=O)Nc1ccc(Cl)c(C(F)(F)F)c1 (stereo partly drawn) [4b, 3β-(((4-chloro-3-(trifluoromethyl)phenyl)carbamoyl)oxy)-30-morpholino-olean-12-ene-11,30-dione] |  | 14.4% | 32.8% |  | 0% | 0% |  |  |  |  | 209.5 to 211.1 °C |
| Cc1ccc(NC(=O)O[C@H]2CC[C@@]3(C)C(CC[C@]4(C)[C@@H]3C(=O)C=C3[C@@H]5C[C@@](C)(C(=O)N6CCOCC6)CC[C@]5(C)CC[C@]34C)C2(C)C)cc1Cl (stereo partly drawn) [4f, 3β-(((3-chloro-4-methylphenyl)carbamoyl)oxy)-30-morpholino-olean-12-ene-11,30-dione] |  | 7.1% | 18.4% |  | 0% | 0% |  |  |  |  | 293.7 to 295.6 °C |
| COc1cccc(NC(=O)O[C@H]2CC[C@@]3(C)C(CC[C@]4(C)[C@@H]3C(=O)C=C3[C@@H]5C[C@@](C)(C(=O)O)CC[C@]5(C)CC[C@]34C)C2(C)C)c1 (stereo partly drawn) [3l, 3β-(((3-methoxyphenyl)carbamoyl)oxy)-11-oxo-olean-12-en-30-oic acid] |  | 6.06% | 47.4% |  | 9.74% | 53.7% |  |  |  |  | 259.5 to 261.1 °C |
| COc1ccc(NC(=O)O[C@H]2CC[C@@]3(C)C(CC[C@]4(C)[C@@H]3C(=O)C=C3[C@@H]5C[C@@](C)(C(=O)O)CC[C@]5(C)CC[C@]34C)C2(C)C)cc1 (stereo partly drawn) [3m, 3β-(((4-methoxyphenyl)carbamoyl)oxy)-11-oxo-olean-12-en-30-oic acid] |  | 12.8% | 32.3% |  | 11.7% | 47.5% |  |  |  |  | 264 to 264.8 °C |
| CN1CCN(CC(=O)O[C@H]2CC[C@@]3(C)C(CC[C@]4(C)[C@@H]3C(=O)C=C3[C@@H]5C[C@@](C)(C(=O)O)CC[C@]5(C)CC[C@]34C)C2(C)C)CC1 (stereo partly drawn) [6c, 3β-(2-(4-methylpiperazin-1-yl)acetoxy)-11-oxo-olean-12-en-30-oic acid] |  | 0% | 0% |  | 0% | 0% |  |  |  |  | 287.5 to 288.9 °C |
| CC1(C(=O)N2CCOCC2)CCC2(C)CCC3(C)C(=CC(=O)C4C5(C)CCC(OC(=O)Nc6ccc(Cl)cc6)C(C)(C)C5CCC43C)C2C1 (stereo not drawn) [4d, 3β-(((4-chlorophenyl)carbamoyl)oxy)-30-morpholino-olean-12-ene-11,30-dione] |  | 16.3% | 53.7% |  | 0% | 54.4% |  |  |  |  | 298.4 to 299.7 °C |
